Reference: US20240132484A1, “BROAD SPECTRUM ANTIVIRAL COMPOUNDS TARGETING THE SKI COMPLEX” (priority 2020, published 2024)
Read-outs that look alike come from different tables or passages of the source.

How the values were obtained:
SARS2 = type: cell-based, SARS-CoV-2
WDR61 = WDR61 (Homo sapiens, UniProt Q9GZS3); assay: Surface Plasmon Resonance with pure WDR61 protein
Influenza virus = assay: organism not typed; type: cell-based, influenza A virus; conditions: for Avg PFU/ml: average of first and second experiment; for Influenza virus titer, 10 μM / Influenza virus titer, 50 μM: upper part of table (FIG. 5 data); for Influenza virus titer, 10 μM / Influenza virus titer, 50 μM / Flu titer (pfu/ml): plaque assay; for Flu titer (pfu/ml): A549 cells

CN1CCN(CC(O)COc2c(CNCCc3ccccc3F)cccc2C2CCCCC2)CC1 (stereo not shown) [SILCS4]
Percentage Inhibition Average 1 μM (SARS2; SARS2, 1 μM): 17.51% | Screening data (Relative infection to DMSO controls) Average 1 μM (SARS2; SARS2, 1 μM, 100=DMSO control): 82.49 | Percentage Inhibition Average 5 μM (SARS2; SARS2, 5 μM): 59.94% | Screening data (Relative infection to DMSO controls) Average 5 μM (SARS2; SARS2, 5 μM, 100=DMSO control): 40.06 | Percentage Inhibition Average 10 μM (SARS2; SARS2, 10 μM): 86.21% | Screening data (Relative infection to DMSO controls) Average 10 μM (SARS2; SARS2, 10 μM, 100=DMSO control): 13.79 | Percentage Inhibition Average 25 μM (SARS2; SARS2, 25 μM): 81.29% | Screening data (Relative infection to DMSO controls) Average 25 μM (SARS2; SARS2, 25 μM, 100=DMSO control): 18.71 | Percentage Inhibition Average 50 μM (SARS2; SARS2, 50 μM): 90.83% | Screening data (Relative infection to DMSO controls) Average 50 μM (SARS2; SARS2, 50 μM, 100=DMSO control): 9.17 | Average (relative infection to DMSO over the 5 tested concentrations) (SARS2; SARS2, average over 1 to 50 uM, 100=DMSO control): 32.84 | Relative cell count to DMSO controls, Average 1 μM (cells (nuclei count); 1 μM, toxicity data, 100=DMSO control): 116.22 | Relative cell count to DMSO controls, Average 5 μM (cells (nuclei count); 5 μM, toxicity data, 100=DMSO control): 123.91 | Relative cell count to DMSO controls, Average 10 μM (cells (nuclei count); 10 μM, toxicity data, 100=DMSO control): 122.04 | Relative cell count to DMSO controls, Average 25 μM (cells (nuclei count); 25 μM, toxicity data, 100=DMSO control): 3.91 | Relative cell count to DMSO controls, Average 50 μM (cells (nuclei count); 50 μM, toxicity data, 100=DMSO control): 2.18 | Toxicity Data, Average, Mean (relative to DMSO control) (cells (nuclei count); Average of Exp 1-3, 1 uM): 116.22% | Toxicity Data, Average, Mean (relative to DMSO control) (cells (nuclei count); Average of Exp 1-3, 5 uM): 123.91% | Toxicity Data, Average, Mean (relative to DMSO control) (cells (nuclei count); Average of Exp 1-3, 10 uM): 122.04% | Toxicity Data, Average, Mean (relative to DMSO control) (cells (nuclei count); Average of Exp 1-3, 25 uM): 3.91% | Toxicity Data, Average, Mean (relative to DMSO control) (cells (nuclei count); Average of Exp 1-3, 50 uM): 2.18% | Relative cell count to DMSO controls, Average (for correlation analysis) (cells (nuclei count); average value over the 5 tested concentrations (1 to 50 uM)): 73.65 | direct binding to WDR61 by SPR (WDR61): binding directly to WDR61

COc1ccc(CNCCCn2ccnc2C)c(OCC(O)CN2CCN(C)CC2)c1 (stereo not shown) [Compound 18-7]
first experiment (Influenza virus; 10 μM screen): 240000 PFU/ml | second experiment (Influenza virus; 10 μM screen): 44000 PFU/ml | Avg PFU/ml (Influenza virus; 10 μM screen): 142000 PFU/ml | Influenza virus titer, 10 μM (Influenza virus): 240000 PFU/virus/ml | first experiment PFU/ml (Influenza virus; 50 μM screen): 110000 PFU/ml | second experiment PFU/ml (Influenza virus; 50 μM screen): 31000 PFU/ml | Avg PFU/ml (Influenza virus; 50 μM screen): 70500 PFU/ml | Influenza virus titer, 50 μM (Influenza virus): 110000 PFU/virus/ml

COC(=O)C1CCN(CC(O)COc2cccc(CN(C)Cc3cc(C)no3)c2)CC1 (stereo not shown) [Compound 62396835, methyl 1-{2-hydroxy-3-[3-({methyl[(3-methyl-5-isoxazolyl)methyl]amino}methyl)phenoxy]propyl}-4-piperidinecarboxylate]
Flu titer (pfu/ml) (Influenza virus; 1 μM compound): 66000 pfu/ml | Flu titer (pfu/ml) (Influenza virus; 10 μM compound): 71000 pfu/ml | Flu titer (pfu/ml) (Influenza virus; 50 μM compound): 30000 pfu/ml

COc1cc(CNCCC2CCN(C)CC2)ccc1OCC(O)CN(C)C1CCCCC1 (stereo not shown) [Compound 28236358, 1-[cyclohexyl(methyl)amino]-3-[2-methoxy-4-({[2-(1-methyl-4-piperidinyl)ethyl]amino}methyl)phenoxy]-2-propanol]
Flu titer (pfu/ml) (Influenza virus; 1 μM compound): 70000 pfu/ml | Flu titer (pfu/ml) (Influenza virus; 10 μM compound): 70000 pfu/ml | Flu titer (pfu/ml) (Influenza virus; 50 μM compound): 39000 pfu/ml

COc1ccc(CNCC2CCCCC2)c(OCC(O)CN2CCN(C)CC2)c1 (stereo not shown) [Compound 18-5]
first experiment (Influenza virus; 10 μM screen): 60000 PFU/ml | second experiment (Influenza virus; 10 μM screen): 500 PFU/ml | Avg PFU/ml (Influenza virus; 10 μM screen): 30250 PFU/ml | Influenza virus titer, 10 μM (Influenza virus): 60000 PFU/virus/ml | first experiment PFU/ml (Influenza virus; 50 μM screen): 2100 PFU/ml | second experiment PFU/ml (Influenza virus; 50 μM screen): 400 PFU/ml | Avg PFU/ml (Influenza virus; 50 μM screen): 1250 PFU/ml | Influenza virus titer, 50 μM (Influenza virus): 2100 PFU/virus/ml

CCCCC(=O)Nc1cccc(NC(=O)COc2ccc(C3CCCCC3)cc2)c1 [Compound 7973169, N-(3-{[2-(4-cyclohexylphenoxy)acetyl]amino}phenyl)pentanamide]
Flu titer (pfu/ml) (Influenza virus; 1 μM compound): 101000 pfu/ml | Flu titer (pfu/ml) (Influenza virus; 10 μM compound): 66000 pfu/ml | Flu titer (pfu/ml) (Influenza virus; 50 μM compound): 110000 pfu/ml

COc1ccc(CNCCCSC)c(OCC(O)CN2CCCCCCC2)c1 (stereo not shown) [Compound 18-14]
first experiment (Influenza virus; 10 μM screen): 44000 PFU/ml | second experiment (Influenza virus; 10 μM screen): 12000 PFU/ml | Avg PFU/ml (Influenza virus; 10 μM screen): 28000 PFU/ml | Influenza virus titer, 10 μM (Influenza virus): 4400 PFU/virus/ml | first experiment PFU/ml (Influenza virus; 50 μM screen): 80000 PFU/ml | second experiment PFU/ml (Influenza virus; 50 μM screen): 1100 PFU/ml | Avg PFU/ml (Influenza virus; 50 μM screen): 40550 PFU/ml | Influenza virus titer, 50 μM (Influenza virus): 80000 PFU/virus/ml

Cc1ccc(-c2cc3c(c(OCC4CCCCO4)c2)OCCN(C(=O)C2CC2)C3)s1 (stereo not shown) [Compound 43261887, 4-(cyclopropylcarbonyl)-7-(5-methyl-2-thienyl)-9-(tetrahydro-2H-pyran-2-ylmethoxy)-2,3,4,5-tetrahydro-1,4-benzoxazepine]
Flu titer (pfu/ml) (Influenza virus; 1 μM compound): 60000 pfu/ml | Flu titer (pfu/ml) (Influenza virus; 10 μM compound): 170000 pfu/ml | Flu titer (pfu/ml) (Influenza virus; 50 μM compound): 30000 pfu/ml

COCCO[C@H]1[C@H](NC(=O)C(C)C)c2ccccc2C12CCN(C(=O)Cn1nc(C)cc1C)CC2 (relative stereo) [Compound 27046321, N-[(2R*,3R*)-1′-[(3,5-dimethyl-1H-pyrazol-1-yl)acetyl]-2-(2-methoxyethoxy)-2,3-dihydrospiro[indene-1,4′-piperidin]-3-yl]-2-methylpropanamide]
Flu titer (pfu/ml) (Influenza virus; 1 μM compound): 110000 pfu/ml | Flu titer (pfu/ml) (Influenza virus; 10 μM compound): 74000 pfu/ml | Flu titer (pfu/ml) (Influenza virus; 50 μM compound): 87000 pfu/ml

COc1ccc(CNCCc2ccccc2C)c(OCC(O)CN2CCN(C)CC2)c1 (stereo not shown) [Compound 18-2]
first experiment (Influenza virus; 10 μM screen): 500 PFU/ml | second experiment (Influenza virus; 10 μM screen): 1900 PFU/ml | Avg PFU/ml (Influenza virus; 10 μM screen): 1200 PFU/ml | Influenza virus titer, 10 μM (Influenza virus): 500 PFU/virus/ml | first experiment PFU/ml (Influenza virus; 50 μM screen): 1700 PFU/ml | second experiment PFU/ml (Influenza virus; 50 μM screen): 100 PFU/ml | Avg PFU/ml (Influenza virus; 50 μM screen): 900 PFU/ml | Influenza virus titer, 50 μM (Influenza virus): 1700 PFU/virus/ml
